Reference: patent publication US20250230193A1, “CYCLIC COMPOUND HAVING SELECTIVE KRAS INHIBITORY EFFECT ON HRAS AND NRAS” (CHUGAI SEIYAKU KABUSHIKI KAISHA, priority 2022, published 2025)
*1 amine or outer side, *2 acyl side, *3 side chain or, on linkers, in order; H or OH if unused. Where a SMILES comes first, the peptide text is derived from it. Bridges are numbered along the chain shown (N, C = ends). [ ]: non-standard residue; d: D form. The star is where a group is joined. hPhe(3-Cl-4-CF3) = N[C@@H](CCc1ccc(C(F)(F)F)c(Cl)c1)C(=O)O; X40 = CCCN([C@@H](Cc1ccc(OC)cc1)C(=O)[*:2])[*:1]; NMeGly(cPent) = CN[C@H](C(=O)O)C1CCCC1; NMeD = CN[C@@H](CC(=O)O)C(=O)O; NMeL = CN[C@@H](CC(C)C)C(=O)O; Morpholide = C1CN(*)CCO1; NMeA = CN[C@@H](C)C(=O)O; Ac5c = NC1(C(=O)O)CCCC1; Aze = O=C(O)[C@@H]1CCN1; Sar = CNCC(=O)O

Assays:
[1] = biological target: GDP-bound NRAS wild-type protein (Homo sapiens, UniProt P01111); assay: Binding to NRAS by surface plasmon resonance (SPR), Single Cycle Kinetics; details: SPR; for NRAS/KRAS (ratio of KD value with respect to NRAS to KD value with respect to KRAS): GDP-bound NRAS wild-type vs GDP-bound KRAS wild-type
GDP-bound NRAS wild-type protein, sequence (P01111 whole entry): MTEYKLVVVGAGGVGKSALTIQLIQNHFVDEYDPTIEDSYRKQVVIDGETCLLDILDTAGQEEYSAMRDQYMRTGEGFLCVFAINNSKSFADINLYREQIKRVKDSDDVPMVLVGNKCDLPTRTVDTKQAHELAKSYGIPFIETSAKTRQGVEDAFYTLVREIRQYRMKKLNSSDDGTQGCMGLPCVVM

[2] = biological target: GDP-bound HRAS wild-type protein (Homo sapiens, UniProt P01112); assay: Binding to HRAS by surface plasmon resonance (SPR), Single Cycle Kinetics; details: SPR; for HRAS/KRAS (ratio of KD value with respect to HRAS to KD value with respect to KRAS): GDP-bound HRAS wild-type vs GDP-bound KRAS wild-type
GDP-bound HRAS wild-type protein, sequence (P01112 whole entry): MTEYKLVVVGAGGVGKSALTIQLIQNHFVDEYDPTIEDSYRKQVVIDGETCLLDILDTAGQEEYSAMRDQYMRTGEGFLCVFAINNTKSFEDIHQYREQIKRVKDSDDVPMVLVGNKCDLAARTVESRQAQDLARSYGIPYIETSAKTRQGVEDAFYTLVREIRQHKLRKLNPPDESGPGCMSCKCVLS

## CCCN1C(=O)[C@@H]2CCN2C(=O)[C@H](C)N(C)C(=O)[C@H]([C@@H](C)CC)NC(=O)[C@H](CC(C)C)N(C)C(=O)C[C@@H](C(=O)N2CCOCC2)N(C)C(=O)[C@H](C2CCCC2)N(C)C(=O)C2(CCCC2)NC(=O)[C@@H]2CCCN2C(=O)[C@H](CCc2ccc(C(F)(F)F)c(Cl)c2)NC(=O)CN(C)C(=O)[C@@H]1Cc1ccc(OC)cc1 [PP0134] ([NMeL]I[NMeA][Aze][X40][Sar][hPhe(3-Cl-4-CF3)]P[Ac5c][NMeGly(cPent)][NMeD]-Morpholide; lactam N-11)
[1]; KD ratio NRAS/KRAS
  NRAS/KRAS (ratio of KD for GDP-bound NRAS wild-type to KD for KRAS): C (A compound having a KD ratio of 0.1 or more and less than 3 is denoted as C)
[2]; KD ratio HRAS/KRAS
  HRAS/KRAS (ratio of KD for GDP-bound HRAS wild-type to KD for KRAS): B (a compound having 3 or more and less than 10 is denoted as B)

## CCOC[C@H]1C(=O)N[C@@H]([C@@H](C)CC)C(=O)N(C)CC(=O)N(C)[C@H]2C/C=C\CCN(C2=O)[C@@H](Cc2ccc(C)cc2)C(=O)N(C)CC(=O)N[C@@H](CCc2cc(F)c(C(F)(F)F)c(F)c2)C(=O)N2C[C@H](OCC)C[C@H]2C(=O)NC2(CC(C)(C)C2)C(=O)N(C)[C@@H](C2CCCC2)C(=O)N(C)[C@H](C(=O)N(C)CC)CC(=O)N1C [PP2404]
[1]
  NRAS/KRAS (ratio of KD value with respect to NRAS to KD value with respect to KRAS): A (a compound having 10 or more and less than 20 is denoted as A)
[2]
  HRAS/KRAS (ratio of KD value with respect to HRAS to KD value with respect to KRAS): A (a compound having 10 or more and less than 20 is denoted as A)

## CC[C@H](C)[C@@H]1NC(=O)[C@H](CC)N(C)C(=O)C[C@@H](C(=O)N(C)C)N(CC)C(=O)[C@H](C2CCCC2)N(C)C(=O)C2(CCC2)NC(=O)[C@@H]2CCCCN2C(=O)[C@H](CCc2cc(F)c(C(F)(F)F)c(F)c2)NC(=O)CN(C)C(=O)[C@H](Cc2ccc(C(F)(F)F)cc2)N2CCCC[C@@H](C2=O)N(C)C(=O)CN(C)C1=O [PP0661]
[1]; KD ratio NRAS/KRAS
  NRAS/KRAS (ratio of KD value with respect to GDP-bound NRAS wild-type protein to KD value with respect to KRAS): C (A compound having a KD ratio of 0.1 or more and less than 3 is denoted as C)
[2]; KD ratio HRAS/KRAS
  HRAS/KRAS (ratio of KD value with respect to GDP-bound HRAS wild-type protein to KD value with respect to KRAS): B (a compound having 3 or more and less than 10 is denoted as B)

## CCO[C@H]1CCN2C(=O)[C@H](CCc3cc(F)c(C(F)(F)F)c(F)c3)NC(=O)CN(C)C(=O)[C@H](Cc3ccc(C(F)(F)F)cc3)N3CCCC[C@@H](C3=O)N(C)C(=O)CN(C)C(=O)[C@H]([C@@H](C)CC)NC(=O)[C@H](CC(C)C)N(C)C(=O)C[C@@H](C(=O)N3CCOCC3)N(C)C(=O)[C@H](C3CCCC3)N(C)C(=O)C3(CCC3)NC(=O)[C@H]12 [PP1076]
[1]; KD ratio
  NRAS/KRAS (ratio of KD value with respect to NRAS to KD value with respect to KRAS): B (a compound having 3 or more and less than 10 is denoted as B)
[2]; KD ratio
  HRAS/KRAS (ratio of KD value with respect to HRAS to KD value with respect to KRAS): B (a compound having 3 or more and less than 10 is denoted as B)

## C=CCN1CC(=O)N(C)[C@H]2C/C=C\CCN(C2=O)[C@@H](Cc2ccc(C)cc2)C(=O)N(C)CC(=O)N[C@@H](CCc2cc(F)c(C(F)(F)F)c(F)c2)C(=O)N2C[C@H](OCC)C[C@H]2C(=O)NC2(CC(C)(C)C2)C(=O)N(C)[C@@H](C2CCCC2)C(=O)N(C)[C@H](C(=O)N(C)C)CC(=O)N(C)[C@@H](CC(C)C)C(=O)N[C@@H]([C@@H](C)CC)C1=O [PP2050]
[1]
  NRAS/KRAS (ratio of KD value with respect to NRAS to KD value with respect to KRAS): A (a compound having 10 or more and less than 20 is denoted as A)
[2]
  HRAS/KRAS (ratio of KD value with respect to HRAS to KD value with respect to KRAS): A (a compound having 10 or more and less than 20 is denoted as A)

## CCO[C@@H]1C[C@H]2C(=O)NC3(CCCC3)C(=O)N(C)[C@@H](C3CCCC3)C(=O)N(C)[C@H](C(=O)N(C)C)CC(=O)N(C)[C@@H](CC(C)C)C(=O)N[C@@H]([C@@H](C)CC)C(=O)N(C)CC(=O)N(C)[C@H]3CC(C)=CCN(C3=O)[C@@H](Cc3ccc(C(F)(F)F)cc3)C(=O)N(C)CC(=O)N[C@@H](CCc3cc(F)c(C(F)(F)F)c(F)c3)C(=O)N2C1 [PP1031]
[1]; KD ratio
  NRAS/KRAS (ratio of KD value with respect to NRAS to KD value with respect to KRAS): C (A compound having a KD ratio of 0.1 or more and less than 3 is denoted as C)
[2]; KD ratio
  HRAS/KRAS (ratio of KD value with respect to HRAS to KD value with respect to KRAS): C (A compound having a KD ratio of 0.1 or more and less than 3 is denoted as C)

## C#CCN1CC(=O)N(C)[C@H]2C/C=C\CCN(C2=O)[C@@H](Cc2ccc(C(F)(F)F)cc2)C(=O)N(C)CC(=O)N[C@@H](CCc2cc(F)c(C(F)(F)F)c(F)c2)C(=O)N2C[C@H](OCC)C[C@H]2C(=O)NC2(CC(C)(C)C2)C(=O)N(C)[C@@H](C2CCCC2)C(=O)N(C)[C@H](C(=O)N(C)C)CC(=O)N(C)[C@@H](CCC)C(=O)N[C@@H]([C@@H](C)CC)C1=O [PP2103]
[1]
  NRAS/KRAS (ratio of KD value with respect to NRAS to KD value with respect to KRAS): A (a compound having 10 or more and less than 20 is denoted as A)
[2]
  HRAS/KRAS (ratio of KD value with respect to HRAS to KD value with respect to KRAS): A (a compound having 10 or more and less than 20 is denoted as A)
